PMC8079033, “Design, synthesis, anticancer evaluation, and molecular modelling studies of novel tolmetin derivatives as potential VEGFR-2 inhibitors and apoptosis inducers” (Journal of Enzyme Inhibition and Medicinal Chemistry, 2021)

Assays:
OVCAR-4 = assay: NCI 60-cell line one-dose antiproliferative screen (SRB); format: cell-based; settings: Homo sapiens, read-out: growth inhibition % (GI%)
Description: (§1) Anticancer activity screening of the newly synthesised compounds was measured in vitro utilising 60 different human tumour cell lines provided by US National Cancer Institute according to previously reported standard procedure[41–43] as follows: Cells are inoculated into 96-well microtiter plates in 100 ml. After cell inoculation, the microtiter plates are incubated at 37 °C, 5% CO2, 95% air, and 100% relative humidity for 24 h prior to addition of experimental compounds. After 24 h, two plates of each cell line are fixed in situ with TCA, to represent a measurement of the cell population for each cell line at the time of compound addition (Tz). Experimental compounds are solubilised in dimethyl sulfoxide at 400-fold the desired final maximum test concentration and stored frozen prior to use. At the time of compound addition, an aliquot of frozen concentrate is thawed and diluted to twice the desired final maximum test concentration with a complete medium containing […] gentamicin. Aliquots of […] of the compounds dilutions are added to the appropriate microtiter wells already containing 100 ml of medium, resulting in the required final compound concentration. Following compound addition, the plates are incubated for an additional 48 h at 37 °C, 5% CO2, 95% air, and 100% relative humidity. For adherent cells, the assay is terminated by the addition of cold trichloroacetic acid (TCA). Cells are fixed in situ by the gentle addition of 50 ml of cold 50% (w/v) TCA (final concentration, 10% TCA) and incubated for […] at 4 °C. The supernatant is discarded, and the plates are washed five times with tap water and air-dried. Sulforhodamine B (SRB) solution (100 ml) at 0.4% (w/v) in 1% acetic acid is added to each well, and plates are incubated for 10 min at room temperature. After staining, the unbound dye is removed by washing five times with 1% acetic acid and the plates are air-dried. The bound stain is subsequently solubilised with a 10 mM trizma base, and the absorbance is read on an automated plate reader at a wavelength of 515 nm. For suspension cells, the methodology is the same except that the assay is terminated by fixing settled cells at the bottom of the wells by gently adding 50 ml of 80% TCA (final concentration, 16% TCA). Using the absorbance measurements [time zero, (Tz), control growth, (C), and test growth in the presence of compound (Ti)], the percentage growth is calculated for each compound. The One-dose data are reported as a mean graph of the percent growth of treated cells. The reported number is growth relative to the no-compound control, and relative to the time zero number of cells. This allows the detection of both growth inhibition and lethality.
(§2) Fifteen newly synthesised compounds were tested for their in vitro antiproliferative activity by the National Cancer Institute (NCI), Maryland, USA[50], under the Developmental Therapeutic Program (DTP)[41]^,[43]^,[51]^,[52]. The tested compounds were evaluated at a concentration of 10 µM on a panel of 60 tumour cell lines representing leukaemia and non-small cell lung, colon, CNS, melanoma, ovarian, renal, prostate, and breast cancers. The antiproliferative activity was presented by the NCI as percent growth of the treated cells and is presented in Table 1 as growth inhibition percentage (GI%) achieved by the tested compounds.

HOP-92 = assay: as above; format: cell-based; settings: Homo sapiens, read-out: growth inhibition % (GI%)
Description: as §1, §2

SR = assay: as above; format: cell-based; settings: Homo sapiens, read-out: growth inhibition % (GI%)
Description: as §1, §2

U251 = assay: as above; format: cell-based; settings: Homo sapiens, U-251, read-out: growth inhibition % (GI%)
Description: as §1, §2

NCI-H226 = assay: as above; format: cell-based; settings: Homo sapiens, read-out: growth inhibition % (GI%)
Description: as §1, §2

CAKI-1 = assay: as above; format: cell-based; settings: Homo sapiens, read-out: growth inhibition % (GI%)
Description: as §1, §2

MDA-MB-231/ATCC = assay: as above; format: cell-based; settings: Homo sapiens, read-out: growth inhibition % (GI%)
Description: as §1, §2

MALME-3M = assay: as above; format: cell-based; settings: Homo sapiens, read-out: growth inhibition % (GI%)
Description: as §1, §2

NCI-H522 = assay: as above; format: cell-based; settings: Homo sapiens, read-out: growth inhibition % (GI%)
Description: as §1, §2

PC-3 = assay: as above; format: cell-based; settings: Homo sapiens, read-out: growth inhibition % (GI%)
Description: as §1, §2

A549/ATCC = assay: as above; format: cell-based; settings: Homo sapiens, read-out: growth inhibition % (GI%)
Description: as §1, §2

HOP-62 = assay: as above; format: cell-based; settings: Homo sapiens, read-out: growth inhibition % (GI%)
Description: as §1, §2

OVCAR-5 = assay: as above; format: cell-based; settings: Homo sapiens, read-out: growth inhibition % (GI%)
Description: as §1, §2

RPMI-8226 = assay: as above; format: cell-based; settings: Homo sapiens, read-out: growth inhibition % (GI%)
Description: as §1, §2

SNB-75 = assay: as above; format: cell-based; settings: Homo sapiens, read-out: growth inhibition % (GI%)
Description: as §1, §2

MOLT-4 = assay: as above; format: cell-based; settings: Homo sapiens, read-out: growth inhibition % (GI%)
Description: as §1, §2

NCI/ADR-RES = assay: as above; format: cell-based; settings: Homo sapiens, read-out: growth inhibition % (GI%)
Description: as §1, §2

HL-60 (TB) = assay: as above; format: cell-based; settings: Homo sapiens, read-out: growth inhibition % (GI%)
Description: as §1, §2

SK-OV-3 = assay: as above; format: cell-based; settings: Homo sapiens, read-out: growth inhibition % (GI%)
Description: as §1, §2

SF-295 = assay: as above; format: cell-based; settings: Homo sapiens, read-out: growth inhibition % (GI%)
Description: as §1, §2

786-0 = assay: as above; format: cell-based; settings: Homo sapiens, read-out: growth inhibition % (GI%)
Description: as §1, §2

SN 12 C = assay: as above; format: cell-based; settings: Homo sapiens, SN12C, read-out: growth inhibition % (GI%)
Description: as §1, §2

HCT-15 = assay: as above; format: cell-based; settings: Homo sapiens, read-out: growth inhibition % (GI%)
Description: as §1, §2

EKVX = assay: as above; format: cell-based; settings: Homo sapiens, read-out: growth inhibition % (GI%)
Description: as §1, §2

HS 578 T = assay: as above; format: cell-based; settings: Homo sapiens, read-out: growth inhibition % (GI%)
Description: as §1, §2

A498 = assay: as above; format: cell-based; settings: Homo sapiens, read-out: growth inhibition % (GI%)
Description: as §1, §2

SW-620 = assay: as above; format: cell-based; settings: Homo sapiens, read-out: growth inhibition % (GI%)
Description: as §1, §2

UACC-257 = assay: as above; format: cell-based; settings: Homo sapiens, read-out: growth inhibition % (GI%)
Description: as §1, §2

IGROV1 = assay: as above; format: cell-based; settings: Homo sapiens, IGROV-1, read-out: growth inhibition % (GI%)
Description: as §1, §2

HCT-116 = assay: as above; format: cell-based; settings: Homo sapiens, read-out: growth inhibition % (GI%)
Description: as §1, §2

SK-MEL-5 = assay: as above; format: cell-based; settings: Homo sapiens, read-out: growth inhibition % (GI%)
Description: as §1, §2

SNB-19 = assay: as above; format: cell-based; settings: Homo sapiens, read-out: growth inhibition % (GI%)
Description: as §1, §2

K-562 = assay: as above; format: cell-based; settings: Homo sapiens, K562, read-out: growth inhibition % (GI%)
Description: as §1, §2

OVCAR-8 = assay: as above; format: cell-based; settings: Homo sapiens, read-out: growth inhibition % (GI%)
Description: as §1, §2

UO-31 = assay: as above; format: cell-based; settings: Homo sapiens, read-out: growth inhibition % (GI%)
Description: as §1, §2

NCI-H23 = assay: as above; format: cell-based; settings: Homo sapiens, read-out: growth inhibition % (GI%)
Description: as §1, §2

NCI-H460 = assay: as above; format: cell-based; settings: Homo sapiens, read-out: growth inhibition % (GI%)
Description: as §1, §2

KM12 = assay: as above; format: cell-based; settings: Homo sapiens, read-out: growth inhibition % (GI%)
Description: as §1, §2

SF-268 = assay: as above; format: cell-based; settings: Homo sapiens, read-out: growth inhibition % (GI%)
Description: as §1, §2

SF-539 = assay: as above; format: cell-based; settings: Homo sapiens, read-out: growth inhibition % (GI%)
Description: as §1, §2

ACHN = assay: as above; format: cell-based; settings: Homo sapiens, read-out: growth inhibition % (GI%)
Description: as §1, §2

T-47D = assay: as above; format: cell-based; settings: Homo sapiens, T47D, read-out: growth inhibition % (GI%)
Description: as §1, §2

UACC-62 = assay: as above; format: cell-based; settings: Homo sapiens, read-out: growth inhibition % (GI%)
Description: as §1, §2

MCF7 = assay: as above; format: cell-based; settings: Homo sapiens, read-out: growth inhibition % (GI%)
Description: as §1, §2

LOX IMVI = assay: as above; format: cell-based; settings: Homo sapiens, read-out: growth inhibition % (GI%)
Description: as §1, §2

## Cc1ccc(C(=O)c2ccc(CC(=O)NN=Cc3cc4ccccc4[nH]3)n2C)cc1 [Compound 5e, N′-((1H-Indol-2-yl)methylene)-2–(1-methyl-5–(4-methylbenzoyl)-1H-pyrrol-2-yl) acetohydrazide]
OVCAR-4
  inhibition at 10 µM: 19.3%
HOP-92
  inhibition at 10 µM: 10.3%
SR
  inhibition at 10 µM: < 10%
U251
  inhibition at 10 µM: < 10%
NCI-H226
  inhibition at 10 µM: 15.3%
CAKI-1
  inhibition at 10 µM: 15.8%
MDA-MB-231/ATCC
  inhibition at 10 µM: 20.5%
MALME-3M
  inhibition at 10 µM: < 10%
NCI-H522
  inhibition at 10 µM: 18.9%
PC-3
  inhibition at 10 µM: 10.9%
A549/ATCC
  inhibition at 10 µM: < 10%
HOP-62
  inhibition at 10 µM: 24%
OVCAR-5
  inhibition at 10 µM: < 10%
RPMI-8226
  inhibition at 10 µM: < 10%
SNB-75
  inhibition at 10 µM: 15.3%
MOLT-4
  inhibition at 10 µM: < 10%
NCI/ADR-RES
  inhibition at 10 µM: < 10%
HL-60 (TB)
  inhibition at 10 µM: < 10%
SK-OV-3
  inhibition at 10 µM: 12.1%
SF-295
  inhibition at 10 µM: < 10%
786-0
  inhibition at 10 µM: < 10%
SN 12 C
  inhibition at 10 µM: 10.5%
HCT-15
  inhibition at 10 µM: 12.6%
EKVX
  inhibition at 10 µM: 25.7%
HS 578 T
  inhibition at 10 µM: < 10%
A498
  inhibition at 10 µM: 10.9%
SW-620
  inhibition at 10 µM: < 10%
UACC-257
  inhibition at 10 µM: < 10%
IGROV1
  inhibition at 10 µM: 45.5%
HCT-116
  inhibition at 10 µM: < 10%
SK-MEL-5
  inhibition at 10 µM: < 10%
SNB-19
  inhibition at 10 µM: 17.3%
K-562
  inhibition at 10 µM: < 10%
OVCAR-8
  inhibition at 10 µM: < 10%
UO-31
  inhibition at 10 µM: 40.4%
NCI-H23
  inhibition at 10 µM: 15.4%
NCI-H460
  inhibition at 10 µM: < 10%
KM12
  inhibition at 10 µM: < 10%
SF-268
  inhibition at 10 µM: < 10%
SF-539
  inhibition at 10 µM: < 10%
ACHN
  inhibition at 10 µM: < 10%
T-47D
  inhibition at 10 µM: 29.4%
UACC-62
  inhibition at 10 µM: 15.8%
MCF7
  inhibition at 10 µM: 22.1%
LOX IMVI
  inhibition at 10 µM: 10.7%
other
  melting point: 198 to 200 °C
